# From US5525731A, “Camptothecin analogues and methods of preparation thereof” (priority 1994, dated 1996)
# Entries after “also recorded” stand apart in the source; their conditions may differ. Read-outs that look alike come from different tables or passages of the source.
# Key:
# topoisomerase-I = assay: Inhibition of topoisomerase-I activity (in words); format: biochemical
# [1] = Reactivity with thiophenol in dichloromethane
# From the text: (For a related example of thiophenol addition to α-methylene-γ-lactones, see: Marshall, J. A., et al., J. Org. Chem., 47, 699 (1982).) NMR analysis of the crude reaction mixture indicated formation of the expected adducts 58 and 59.
# Sarcoma 180 = system: Sarcoma 180
# Procedure: The control lane (Table A) indicates separate inoculation of nine mice with B-16 melanoma and sarcoma 180.
# Anti-tumor activity of the newly synthesized compounds and the established drugs (as positive controls) against solid tumors (B-16 melanoma and sarcoma 180) was tested in BD2 F1 mice. Tumor (about 2.5×10^6 cells) was inoculated subcutaneously (s.c.). Treatment with the drug started on day 4 after inoculation. The drug was injected intraperitoneously (i.p) daily (QD) for five days. Control mice received the same volume (50 μl) of the solvent vehicle (Dinso) as the drug-treated animals. Tumor size was evaluated every few days using a caliper for both the control and the treated group. Average body weight changes were recorded daily. Any lethality due to high dose drug toxicity or due to tumor progression was also recorded.
# (§1) Schedule: QD × 5. I.P. started day 4
# [2] = Cytotoxicity of compound 33 (in words); format: cell-based; conditions: relative to camptothecin
# B-16 melanoma = format: in vivo, BD2 F1 mice
# Procedure: Average body weight changes were recorded daily.
# Tumor: B16 Melanoma Drug A = Camptothecin
# Inoculation: 2 × 10^6 cells. S.C.
# as §1
# 844K cells = assay: Cytotoxicity, XTT assay, 844K cells (so in the source); format: cell-based; conditions: Table II, read-out: Inhibitory Concentrations IC50
# Procedure: (§2) The synthesized compounds were evaluated for their cytotoxic effects on HL-60 (human promyelocytic leukemia) and 833K cells. The assay was conducted in 96-well microplates. The compounds were serially diluted in 4 to 6 steps with dimethylsulfoxide and added to cell incubation medium (RPMI 1640 containing 10% fetal. […]) at the final concentration of 1.0% dimethylsulfoxide in the medium. The cytotoxicity of the compounds were determined by the XTT-microculture tetrazolium assay: 2',3'-bis(2-methoxy-4-nitro-5-sulfophenyl)-3-[(phenylamino)carbonyl]-2H-tetrazolium hydroxide (XTT) was prepared at 1 mg/mL in prewarmed (37° C.) medium without serum. Phenazine methosulfate (PMS) and fresh XTT were mixed together to obtain 0.075 mM PMS-XTT solution (25 mL of the stock with 5 mg PMS added per 5 mL of 1 mg/mL XTT). Fifty microliters of this mixture were added to each well of the cell culture after 72 hours exposure to the testing compound. After incubation at 37° C. for 6 hours, the absorbance was determined at 450 nm and 630 nm with a microplate reader (EL 340, Bio-Tek Instruments, Inc., Winooski, Vt.). THe median-effect inhibitory concentration (IC50) was determined from a medium-effect plot using computer software for the purpose.
# [3] = system: HL-60 cells (human promyelocytic leukemia); assay: Cytotoxicity, XTT assay, HL-60 cell growth, 72 hr exposure; format: cell-based
# Procedure: as §2
# (§3) The results of the assay of cytotoxicity towards HL-60 and 833K cells of several analogues of camptothecin prepared in accord with the invention are illustrated in the accompanying Tables I and II, along with comparison data for native camptothecin. The data shown indicate that the camptothecin analogues prepared by the new methods provided by the invention have significant cytotoxic activity against cancer cells. […]
# 833K cells = assay: Cytotoxicity, XTT assay, 833K cell growth, 72 hr exposure; format: cell-based; conditions: for IC50: read-out: Inhibitory Concentrations IC50; for IC70: read-out: Inhibitory Concentrations IC70; for IC95: read-out: Inhibitory Concentrations IC95
# Procedure: as §2, §3
# [4] = B-16 melanoma, 10 mg/kg i.p. QD × 5, day 7
# [5] = B-16 melanoma, 30 mg/kg i.p. QD × 5, day 7
# [6] = Homo sapiens, HL-60, 72 h, Table I, HL-60 (head HL-6), 72 hr, XTT, read-out: Inhibitory Concentrations IC50
# [7] = Homo sapiens, HL-60, 72 h, Table I, HL-60 (head HL-6), 72 hr, XTT, read-out: Inhibitory Concentrations IC70
# [8] = Homo sapiens, HL-60, 72 h, Table I, HL-60 (head HL-6), 72 hr, XTT, read-out: Inhibitory Concentrations IC95
# [9] = Homo sapiens, HL-60, 72 h, Table II, HL-60, 72 hr, XTT, read-out: Inhibitory Concentrations IC50
# [10] = Homo sapiens, HL-60, 72 h, Table II, HL-60, 72 hr, XTT, read-out: Inhibitory Concentrations IC70
# [11] = Homo sapiens, HL-60, 72 h, Table II, HL-60, 72 hr, XTT, read-out: Inhibitory Concentrations IC95
# [12] = Homo sapiens, 72 h, Table I, 72 hr, XTT
# [13] = Homo sapiens, Table I, 72 hr, XTT
# [14] = Table I, HL-60 (head HL-6), 72 hr, XTT
# [15] = Table I, HL-60 (head HL-6), 72 hr, XTT, read-out: Inhibitory Concentrations IC50
# [16] = Table II, HL-60, 72 hr, XTT, read-out: Inhibitory Concentrations IC50
# [17] = Table II, HL-60, 72 hr, XTT, read-out: Inhibitory Concentrations IC70
# [18] = Table II, HL-60, 72 hr, XTT, read-out: Inhibitory Concentrations IC95
# [19] = Homo sapiens, HL-60, 72 h, read-out: Inhibitory Concentrations IC50, Table I, HL-60 (head HL-6), 72 hr, XTT
# [20] = Homo sapiens, HL-60, 72 h, read-out: Inhibitory Concentrations IC50, Table II, HL-60, 72 hr, XTT
# [21] = Homo sapiens, HL-60, 72 h, read-out: Inhibitory Concentrations IC70, Table I, HL-60 (head HL-6), 72 hr, XTT
# [22] = Homo sapiens, HL-60, 72 h, read-out: Inhibitory Concentrations IC70, Table II, HL-60, 72 hr, XTT
# [23] = Homo sapiens, HL-60, 72 h, read-out: Inhibitory Concentrations IC95, Table I, HL-60 (head HL-6), 72 hr, XTT
# [24] = Homo sapiens, HL-60, 72 h, read-out: Inhibitory Concentrations IC95, Table II, HL-60, 72 hr, XTT
smiles,measurement,setting,value
"C=C1C(=O)OCc2c1cc1n(c2=O)Cc2cc3ccccc3nc2-1 [Compound 32, 18-nor-anhydrocamptothecin]",inhibition of topoisomerase-I activity,topoisomerase-I,potent camptothecin-like inhibition of topoisomerase-I activity
same,reaction with thiophenol,[1],consumption of starting material
"C=C1C(=O)OCc2c1cc1n(c2=O)Cc2c-1nc1ccc(O)cc1c2CC [Compound 33, 7-Ethyl-10-hydroxy-18-nor-anhydrocamptothecin]",DEATHS (D/L),"Sarcoma 180; Sarcoma 180, 10 mg/kg, day 7",0/2
same,DEATHS (D/L),"Sarcoma 180; Sarcoma 180, 10 mg/kg, day 14",0/2
same,DEATHS (D/L),"Sarcoma 180; Sarcoma 180, 30 mg/kg, day 7, death on day 4 after treatment, listed as 18-nor-20-dehydro-7-ethyl-10-hydroxycamptothecin",one of the two subjects died after day 4 of treatment
same,DEATHS (D/L),"Sarcoma 180; Sarcoma 180, 30 mg/kg, day 7, death on day 4 after treatment, listed as 20-CH2 -7-Et-10-OH-CPT",One of two mice died on day 4 after treatment
same,DEATHS (D/L),"Sarcoma 180; Sarcoma 180, 30 mg/kg, day 7, death on day 4 after treatment, listed as B",1/2
same,DEATHS (D/L),"Sarcoma 180; Sarcoma 180, 30 mg/kg, day 14",0/1
same,cytotoxicity,[2],significantly reduced levels relative to camptothecin
same,inhibition of topoisomerase-I activity,topoisomerase-I,potent camptothecin-like inhibition of topoisomerase-I activity; also recorded: still retaining enzyme inhibitory function
same,reaction with thiophenol,[1],consumption of starting material
same,AVERAGE TUMOR VOLUME,"B-16 melanoma; B16 melanoma, 10 mg/kg, day 7",0.163 CM^3
same,PERCENT OF CONTROL (tumor volume),"B-16 melanoma; B16 melanoma, 10 mg/kg, day 7",85.8%
same,AVERAGE TUMOR VOLUME,"B-16 melanoma; B16 melanoma, 10 mg/kg, day 14",2.320 CM^3
same,AWC (average weight change),"B-16 melanoma; B16 melanoma, 10 mg/kg, day 14",+2.7 GM
same,PERCENT OF CONTROL (tumor volume),"B-16 melanoma; B16 melanoma, 10 mg/kg, day 14",72.7%
same,AVERAGE TUMOR VOLUME,"B-16 melanoma; B16 melanoma, 30 mg/kg, day 7",0.036 CM^3
same,PERCENT OF CONTROL (tumor volume),"B-16 melanoma; B16 melanoma, 30 mg/kg, day 7",18.9%
same,AVERAGE TUMOR VOLUME,"B-16 melanoma; B16 melanoma, 30 mg/kg, day 14",2.925 CM^3
same,AWC (average weight change),"B-16 melanoma; B16 melanoma, 30 mg/kg, day 14",+2.7 GM
same,PERCENT OF CONTROL (tumor volume),"B-16 melanoma; B16 melanoma, 30 mg/kg, day 14",91.7%
same,activity compared with authentic camptothecin,B-16 melanoma; B-16 melanoma and sarcoma 180 together,compares favorably with that of authentic camptothecin
same,decreased body weight,"B-16 melanoma; B-16 melanoma, 10 mg/kg",1.4 gm
same,tumor volume decrease,"B-16 melanoma; B-16 melanoma, 10 mg/kg",14%
same,AWC (average weight change),B-16 melanoma; [4],-1.4 gm
same,Ave Tumor Volume (T/C),B-16 melanoma; [4],0.858
same,decreased body weight,"B-16 melanoma; B-16 melanoma, 30 mg/kg",1.9 gm
same,tumor volume decrease,"B-16 melanoma; B-16 melanoma, 30 mg/kg",81%
same,AWC (average weight change),B-16 melanoma; [5],-1.9 gm
same,Ave Tumor Volume (T/C),B-16 melanoma; [5],0.189
CC[C@@]1(O)C(=O)OCc2c1cc1n(c2=O)Cc2cc3c(CN(C)C)c(O)ccc3nc2-1 [Topotecan],IC50,844K cells,0.046 µM
"CCC1C(=O)OCc2c1cc1n(c2=O)Cc2cc3ccccc3nc2-1 (stereo not shown) [WS-2, 20-Deoxycamptothecin]",IC50,[3]; [6],0.039 µM
same,IC70,[3]; [7],0.052 µM
same,IC95,[3]; [8],0.109 µM
same,IC50,[3]; [9],0.039 µM
same,IC70,[3]; [10],0.052 µM
same,IC95,[3]; [11],0.109 µM
same,IC50,833K cells; [12],0.31 µM
same,IC70,833K cells; [13],0.143 µM
same,IC95,833K cells; [13],3.17 µM
"CCC1C(=O)OCc2c1c(C(=O)OC)c1n(c2=O)Cc2cc3ccccc3nc2-1 (stereo not shown) [WS-3, 14-Carbomethoxy-20-deoxycamptothecin]",Inhibitory Concentrations IC70,[3]; [14],0.318
same,Inhibitory Concentrations IC95,[3]; [14],1.082
same,IC50,[3]; [15],0.914 µM
same,IC50,[3]; [16],0.194 µM
same,IC70,[3]; [17],0.318 µM
same,IC95,[3]; [18],1.082 µM
same,IC50,"833K cells; Table I, 72 hr, XTT",> 50 µM
"CCC1C(=O)OCc2c1c(C(=O)OC)c1n(c2=O)Cc2cc3ccccc3nc2-1 (stereo not shown) [WS-4, 14-Carbomethoxy-20-deoxycamptothecin]",Inhibitory Concentrations IC70,[3]; [14],12.0
same,Inhibitory Concentrations IC95,[3]; [14],618.7
same,IC50,[3]; [15],2.44 µM
same,IC50,[3]; [16],2.44 µM
same,IC70,[3]; [17],12.0 µM
same,IC95,[3]; [18],618.7 µM
same,IC70,833K cells; [13],5.8 µM
same,IC95,833K cells; [13],59.8 µM
same,IC50,"833K cells; Table I, 72 hr, XTT",2.26 µM
"CCC1(O)C(=O)OCc2c1c(C(=O)OC)c1n(c2=O)Cc2cc3ccccc3nc2-1 (stereo not shown) [WS-5, 14-Carbomethoxy-Camptothecin]",IC50,[3]; [19],> 5 µM
same,IC50,[3]; [20],> 5 µM
same,IC50,"833K cells; Homo sapiens, 72 h",63.5 µM
same,IC70,"833K cells; Homo sapiens, 72 h",83.7 µM
same,IC95,"833K cells; Homo sapiens, 72 h",898 ± 750 µM
"CCC1(O)C(=O)OC(C)c2c1cc1n(c2=O)Cc2cc3ccccc3nc2-1 (stereo not shown) [WS-6, 17-Methylcamptothecin]",IC50,[3]; [19],0.266 µM
same,IC50,[3]; [20],0.266 µM
same,IC70,[3]; [21],0.432 µM
same,IC70,[3]; [22],0.432 µM
same,IC95,[3]; [23],1.43 µM
same,IC95,[3]; [24],1.43 µM
same,IC50,"833K cells; Homo sapiens, 72 h",3.71 µM
same,IC70,"833K cells; Homo sapiens, 72 h",7.34 µM
same,IC95,"833K cells; Homo sapiens, 72 h",40.1 µM
"CC1(O)C(=O)OCc2c1cc1n(c2=O)Cc2cc3ccccc3nc2-1 (stereo not shown) [WS-7, 20-Methylcamptothecin]",IC50,[3]; [19],0.062 µM
same,IC50,[3]; [20],0.062 µM
same,IC70,[3]; [21],0.09 µM
same,IC70,[3]; [22],0.09 µM
same,IC95,[3]; [23],0.229 µM
same,IC95,[3]; [24],0.229 µM
same,IC50,"833K cells; Homo sapiens, 72 h",0.082 µM
same,IC70,"833K cells; Homo sapiens, 72 h",0.29 µM
same,IC95,"833K cells; Homo sapiens, 72 h",7.16 µM
"CC=C1C(=O)OCc2c1cc1n(c2=O)Cc2cc3ccccc3nc2-1 [WS-8, 20-dehydrated-CPT]",IC50,[3]; [6],3.44 µM
same,IC70,[3]; [7],5.47 µM
same,IC95,[3]; [8],17.1 µM
same,IC50,[3]; [9],3.44 µM
same,IC70,[3]; [10],5.47 µM
same,IC95,[3]; [11],17.1 µM
same,IC50,833K cells; [12],1.7 µM
same,IC70,833K cells; [13],4.75 µM
same,IC95,833K cells; [13],50.4 ± 13.8 µM
